# Several values for one entry are separate records, joined by “and”; a condition that tells them apart may be missing. Equal values may be shown once.
# Tested on: NCI-H1876 complex spheroid viability
# Test: Anticancer human tumor NCI-H1876 cell line growth inhibition [LSD1];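 further: spheroids exposed to compounds for one week before readout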;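 on viability, T/C: 100% = DMSO vehicle-treated spheroids so lower means fewer viable cells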
# Conditions: for viability, T/C: stronger effect = lower value
# Source text: Multicellular complex tumor spheroid response to LSD1 Inhibitor Iadademstat in combination with a variety of drugs and investigational agents in selected tumor cell lines
# The current study was undertaken to assess response to LSD1 inhibitors in combination with standard-of-care drugs and investigational agents in solid tumor complex spheroid models as well as in the K-562 leukemia. Complex spheroids include a stromal component modeled by human endothelial cells (HUVEC) and fibroblasts modeled by human mesenchymal stem cells (MSCs). The concentration ranges selected for each drug and investigational agent were based upon clinically achievable concentrations if the clinical Cmax of the agent was known.
# Compounds. The drugs and investigational agents used in this study are listed on Table 1. All of the agents used, including staurosporine (NSC755774) and gemcitabine (NSC613327), were obtained from the Developmental Therapeutics Program, NCI. FDA-approved anticancer drugs are available from the NCI at http://dtp.nci.nih.gov/branches/dscb/oncology_drugset_explanation.html. Drugs and investigational agents were >95% pure by proton nuclear magnetic resonance (NMR) and liquid chromatography/mass spectrometry (LC/MS). Stock solutions were prepared at 400x in DMSO, stored at -70 degrees C, and diluted in fresh medium prior to their use. The final concentration of DMSO in cell culture wells never exceeded 0.25% (v/v). The FDA-approved anticancer drug set is available from the Developmental Therapeutics Program at https://dtp.cancer.gov/organization/dscb/obtaining/available_plates.htm. All drugs and investigational agents were tested over a range starting from a high concentration at or near the clinical Cmax and decreasing in half-log increments. If the clinical Cmax for an agent had not been determined, the highest concentration tested was 10 microM.
# Cell Lines. The patient-derived cancer cell (PDC) lines: 292921-168-R-J2-PDC, K24384-001-R-PDC, and 521955-158-R2-J5-PDC pancreatic carcinomas, 556581-035-R-J1 ovarian carcinoma, 324938-238-R-J1-PDC, 855422-203-R-J1-PDC and 883617-216-R-J1-PDC urothelial bladder carcinomas, 743489-274-T-PDC renal cell carcinoma, 138582-R-J1 Merkel cell tumor, K60290-347-R-J1 and K57222-313-R-J1-PDC glioblastomas, 653999-131-R-J2-PDC, LG0703-F948-PDC, and 349418-098-R-PDC non-small cell lung carcinomas, 885512-296-R-J2-PDC, 171881-019-R-J1-PDC breast carcinomas and 186277-243-T-J2-PDC and 233499-124-R-J2-PDC colon carcinomas were obtained from the NCI Patient-Derived Models Repository (PDMR, https://pdmr.cancer.gov). The established cell lines NCI/ADR-RES (RRID:CVCL_14520 and OVCAR-5 (RRID:CVCL_1628) ovarian carcinomas, 786-O (RRID:CVCL_1051) and A498 (RRID:CVCL_A498) renal cell carcinoma, NCI-H211 (ATCC, cat. CRL-5824; RRID:CVCL_1529), NCI-H196 (ATCC, cat. CRL-5823, RRID:CVCL_1509), SW 1271 (ATCC, cat. CRL-2177, RRID:CVCL_1716) and NCI-H1876 (ATCC, cat. CRL-5902, RRID:CVCL_1503) small cell lung carcinomas, MDA-MB-231 (RRID:CVCL_0062) and MDA-MB-468 (RRID:CVCL_0419)breast carcinomas (10-12). Pooled donor human umbilical vein endothelial cells (HUVEC, Lonza, cat. CC-2519) and human mesenchymal stem cells (hMSC, Lonza, cat. PT-2501) were purchased from Lonza (Walkersville, MD).
# Cell Culture. All cells were maintained in an incubator at 37 degrees C and 5% CO2 with 95% humidity. The PDC lines were cultured according to standard operating procedures established by the NCI PDMR (https://pdmr.cancer.gov). Briefly all PDCs were thawed and cultured in Matrigel-coated flasks prepared with a working solution of 1X Ham's F-12 nutrient mix, without supplementation (Invitrogen, Waltham, MA, cat. 11765054), 100 U/mL penicillin-streptomycin (Invitrogen, cat. 15140122), and 2.5% Matrigel (Corning Inc., Corning, NY, cat. 354248) for the first three passages. […]
# [1] = curve of first compound, second compound 0.1 µM
# [2] = curve of first compound, second compound 0.316 µM
# [3] = curve of first compound, second compound 1 µM
# [4] = curve of first compound, second compound 3.16 µM
# [5] = curve of first compound, second compound 10 µM
# [6] = second compound 0.1 µM, first compound 0.00949 µM
# [7] = second compound 0.1 µM, first compound 0.03 µM
# [8] = second compound 0.1 µM, first compound 0.0949 µM
# [9] = second compound 0.1 µM, first compound 0.3 µM
# [10] = second compound 0.1 µM, first compound 0.949 µM
# [11] = second compound 0.1 µM, first compound 3 µM
# [12] = second compound 0.316 µM, first compound 0.00949 µM
# [13] = second compound 0.316 µM, first compound 0.03 µM
# [14] = second compound 0.316 µM, first compound 0.0949 µM
# [15] = second compound 0.316 µM, first compound 0.3 µM
# [16] = second compound 0.316 µM, first compound 0.949 µM
# [17] = second compound 0.316 µM, first compound 3 µM
# [18] = second compound 1 µM, first compound 0.00949 µM
# [19] = second compound 1 µM, first compound 0.03 µM
# [20] = second compound 1 µM, first compound 0.0949 µM
# [21] = second compound 1 µM, first compound 0.3 µM
# [22] = second compound 1 µM, first compound 0.949 µM
# [23] = second compound 1 µM, first compound 3 µM
# [24] = second compound 3.16 µM, first compound 0.00949 µM
# [25] = second compound 3.16 µM, first compound 0.03 µM
# [26] = second compound 3.16 µM, first compound 0.0949 µM
# [27] = second compound 3.16 µM, first compound 0.3 µM
# [28] = second compound 3.16 µM, first compound 0.949 µM
# [29] = second compound 3.16 µM, first compound 3 µM
# [30] = second compound 10 µM, first compound 0.00949 µM
# [31] = second compound 10 µM, first compound 0.03 µM
# [32] = second compound 10 µM, first compound 0.0949 µM
# [33] = second compound 10 µM, first compound 0.3 µM
# [34] = second compound 10 µM, first compound 0.949 µM
# [35] = second compound 10 µM, first compound 3 µM
structure (smiles),measurement,setting,value
NS(=O)(=O)OCC1CC(n2ccc3c(NC4CCc5ccccc54)ncnc32)CC1O (centres undefined) + NC1CC1c1ccc(-c2cccc(O)c2)cc1,IC50,[1],84.6 nM
same,IC50,[2],94.3 nM
same,IC50,[3],78.2 nM
same,IC50,[4],130 nM
same,IC50,[5],187 nM
same,"viability, T/C",[6],93.3%
same,"viability, T/C",[7],58%
same,"viability, T/C",[8],52%
same,"viability, T/C",[9],45.5%
same,"viability, T/C",[10],44.5%
same,"viability, T/C",[11],37.4%
same,"viability, T/C",[12],82.4%
same,"viability, T/C",[13],59.1%
same,"viability, T/C",[14],50.6%
same,"viability, T/C",[15],45.8%
same,"viability, T/C",[16],42.8%
same,"viability, T/C",[17],38.4%
same,"viability, T/C",[18],86.6%
same,"viability, T/C",[19],56.8%
same,"viability, T/C",[20],49.4%
same,"viability, T/C",[21],47.2%
same,"viability, T/C",[22],41.3%
same,"viability, T/C",[23],38.3%
same,"viability, T/C",[24],91.1%
same,"viability, T/C",[25],63%
same,"viability, T/C",[26],53.6%
same,"viability, T/C",[27],46.7%
same,"viability, T/C",[28],39.9%
same,"viability, T/C",[29],36.2%
same,"viability, T/C",[30],87.2%
same,"viability, T/C",[31],73.6%
same,"viability, T/C",[32],55.5%
same,"viability, T/C",[33],45%
same,"viability, T/C",[34],38.6%
same,"viability, T/C",[35],30.9%
CCN(c1cc(-c2ccc(CN3CCOCC3)cc2)cc(C(=O)NCc2c(C)cc(C)[nH]c2=O)c1C)C1CCOCC1,"viability, T/C",compound 0.00949 µM,104% and 108%
same,"viability, T/C",compound 0.03 µM,97.2% and 107%
same,"viability, T/C",compound 0.0949 µM,104% and 96.1%
same,"viability, T/C",compound 0.3 µM,101% and 96.2%
same,"viability, T/C",compound 0.949 µM,82.7% and 79.5%
same,"viability, T/C",compound 3 µM,55.7% and 54.8%
same,IC50,curve of compound,> 3000 nM
Nc1ncn(C2CC(O)C(CO)S2)c(=O)n1 (centres undefined),"viability, T/C",compound 0.000949 µM,105% and 97.8%
same,"viability, T/C",compound 0.003 µM,96.8% and 99.5%
same,"viability, T/C",compound 0.00949 µM,100% and 95.5%
same,"viability, T/C",compound 0.03 µM,81.2% and 81.3%
same,"viability, T/C",compound 0.0949 µM,83.2% and 71.1%
same,"viability, T/C",compound 0.3 µM,59.5% and 50.1%
same,IC50,curve of compound,> 300 nM
COc1cc(Nc2ncc3c(n2)-c2ccc(Cl)cc2C(c2c(F)cccc2OC)=NC3)ccc1C(=O)O + NC1CC1c1ccc(-c2cccc(O)c2)cc1,IC50,[1],28.5 nM
same,IC50,[2],37 nM
same,IC50,[3],35.9 nM
same,IC50,[4],30.1 nM
same,IC50,[5],41.2 nM
same,"viability, T/C","second compound 0.1 µM, first compound 0.00316 µM",69.2%
same,"viability, T/C","second compound 0.1 µM, first compound 0.01 µM",61.6%
same,"viability, T/C","second compound 0.1 µM, first compound 0.0316 µM",48.2%
same,"viability, T/C","second compound 0.1 µM, first compound 0.1 µM",35.7%
same,"viability, T/C","second compound 0.1 µM, first compound 0.316 µM",30.2%
same,"viability, T/C","second compound 0.1 µM, first compound 1 µM",16.3%
same,"viability, T/C","second compound 0.316 µM, first compound 0.00316 µM",64.9%
same,"viability, T/C","second compound 0.316 µM, first compound 0.01 µM",64.5%
same,"viability, T/C","second compound 0.316 µM, first compound 0.0316 µM",50.2%
same,"viability, T/C","second compound 0.316 µM, first compound 0.1 µM",37.5%
same,"viability, T/C","second compound 0.316 µM, first compound 0.316 µM",26%
same,"viability, T/C","second compound 0.316 µM, first compound 1 µM",15.8%
same,"viability, T/C","second compound 1 µM, first compound 0.00316 µM",78.4%
same,"viability, T/C","second compound 1 µM, first compound 0.01 µM",62.1%
same,"viability, T/C","second compound 1 µM, first compound 0.0316 µM",51.5%
same,"viability, T/C","second compound 1 µM, first compound 0.1 µM",40.5%
same,"viability, T/C","second compound 1 µM, first compound 0.316 µM",27.1%
same,"viability, T/C","second compound 1 µM, first compound 1 µM",16.2%
same,"viability, T/C","second compound 3.16 µM, first compound 0.00316 µM",65.9%
same,"viability, T/C","second compound 3.16 µM, first compound 0.01 µM",58.4%
same,"viability, T/C","second compound 3.16 µM, first compound 0.0316 µM",49.8%
same,"viability, T/C","second compound 3.16 µM, first compound 0.1 µM",38.5%
same,"viability, T/C","second compound 3.16 µM, first compound 0.316 µM",27.9%
same,"viability, T/C","second compound 3.16 µM, first compound 1 µM",15%
same,"viability, T/C","second compound 10 µM, first compound 0.00316 µM",64.3%
same,"viability, T/C","second compound 10 µM, first compound 0.01 µM",62.1%
same,"viability, T/C","second compound 10 µM, first compound 0.0316 µM",53.1%
same,"viability, T/C","second compound 10 µM, first compound 0.1 µM",38.7%
same,"viability, T/C","second compound 10 µM, first compound 0.316 µM",31.1%
same,"viability, T/C","second compound 10 µM, first compound 1 µM",17.2%
CCN(c1cc(-c2ccc(CN3CCOCC3)cc2)cc(C(=O)NCc2c(C)cc(C)[nH]c2=O)c1C)C1CCOCC1 + NC1CC1c1ccc(-c2cccc(O)c2)cc1,IC50,[1],> 3000 nM
same,IC50,[2],> 3000 nM
same,IC50,[3],> 3000 nM
same,IC50,[4],> 3000 nM
same,IC50,[5],> 3000 nM
same,"viability, T/C",[6],110%
same,"viability, T/C",[7],109%
same,"viability, T/C",[8],110%
same,"viability, T/C",[9],99.6%
same,"viability, T/C",[10],86.6%
same,"viability, T/C",[11],54.8%
same,"viability, T/C",[12],102%
same,"viability, T/C",[13],106%
same,"viability, T/C",[14],102%
same,"viability, T/C",[15],94.1%
same,"viability, T/C",[16],77.3%
same,"viability, T/C",[17],54.1%
same,"viability, T/C",[18],111%
same,"viability, T/C",[19],112%
same,"viability, T/C",[20],104%
same,"viability, T/C",[21],102%
same,"viability, T/C",[22],88.2%
same,"viability, T/C",[23],60%
same,"viability, T/C",[24],109%
same,"viability, T/C",[25],108%
same,"viability, T/C",[26],107%
same,"viability, T/C",[27],97.5%
same,"viability, T/C",[28],83.8%
same,"viability, T/C",[29],57.8%
same,"viability, T/C",[30],106%
same,"viability, T/C",[31],99.9%
same,"viability, T/C",[32],111%
same,"viability, T/C",[33],100%
same,"viability, T/C",[34],79.9%
same,"viability, T/C",[35],55.3%

# — PubChem BioAssay AID1918957 (Molecular Pharmacology Branch, DTP, NCI, 2023)
